Assay results reported in PMC10354432, “Preparation of caffeic acid grafted chitosan self-assembled micelles to enhance oral bioavailability and antibacterial activity of quercetin” (Frontiers in Veterinary Science, 2023).

Legend:
[1] = Particle size and morphology by transmission electron microscopy; type: physicochemical
Text: We evaluated the successful preparation of CA-g-CS by UV absorption and IR detection of CS, CA, and CA-g-CS and compared the solubility of CS as well as CA-g-CS in water. The morphology of CA-g-CS/QR and QR was characterized by transmission electron microscopy. CA-g-CS/QR and QR were dropped on clean copper grids, negatively stained with 2% phosphotungstic acid solution, and the water was evaporated in the air at room temperature. The samples were dried and placed under transmission electron microscopy to observe the morphology.

[2] = Stability of QR in white broiler plasma; type: in vitro ADME
Experimental: Precision and accuracy were assessed by running the standards (n = 6) for 1 day and three consecutive days for three levels of concentration (10.0, 100.0, and 500.0 ng/ml) at low, medium, and high. The stability of QR in the samples was also investigated by sampling and analyzing the three levels of spiked plasma at −20°C for 1 week and 4°C for 24 h.

[3] = In vivo pharmacokinetics in white-finned broiler chickens; details: Chinese white-finned broiler, po, i.g., 36 mg/kg
Text: The experimental procedures were reviewed and approved by the Institutional Animal Care and Use Committee of Hebei Agricultural University and carried out in accordance with the Guidelines for the Care and Use of Laboratory Animals of China. In this study, 12 healthy 30 days old Chinese white-finned broilers were used for the trial. All broilers were reared from 1 day of age and were provided with adequate basal diets and water, which were formulated to meet or exceed the nutritional requirements of broilers. Room temperature was maintained at 35°C for the first 3 days, then decreased to 28–30°C for the next 2 weeks and 25°C for the rest of the period. Broilers were randomly divided into two treatment groups (six broilers per treatment, n = 6) before the experiment, fasted for 18 h, and watered ad libitum. The experiment was administered by instillation, and blood was collected under the wings during the experiment according to the time designed for the experiment, and the plasma was centrifuged and separated for storage in a refrigerator at −20°C for processing and analysis. At the end of the experiment, broilers were euthanized.
The Waters Acquity UPLC H-Class system (Waters, Milford, MA, USA) includes a four-stage solvent manager, an autosampler set at 4°C and a Waters Acquity UPLC Shield RP18 column (100 × 2.1 mm, 1.7 μm, Waters. Milford, MA, USA). The mobile phase was methanol-0.1% phosphate (72:28, v/v). Detection was performed by a photodiode array detector at 373 nm at a flow rate of 0.2 mL/min. This assay was developed for the determination of QR in blood plasma.
A 200μL aliquot of plasma was sequentially added 20μL of 40μg/mL kaempferol internal standard, 100 μL of 25% HCL and 2 mL of ethyl acetate vortexed for 2 min equally. This mixture was centrifuged at 5000 rpm for 10 min, and the supernatant was transferred into a centrifuge tube and then concentrated to dryness under nitrogen. The analytes were dissolved in 200 μL of methanol/0.1% phosphoric acid water (4:1, v/v).
White-finned broilers were randomly divided into two experimental groups, one for the QR solution group and the other for the CA-g-CS/QR group, with six replicates in each group. The CA-g-CS/QR solution and the original QR solution were prepared and administered to the chickens at a dose of 36 mg/kg, and blood was collected under the wings at 15, 30, 60, 120, 240, 360, 480, 720, 1440, and 2160 min after the administration, placed in sodium heparin anticoagulation tubes and centrifuged to separate the plasma.
Pharmacokinetic parameters were estimated by blood concentration-time curves from Phoenix WinNonlin software. The […] was used to calculate the terminal elimination half-life (t1/2, λz), the area under the blood concentration-time curve (AUC0 − t), terminal feed time (AUC0−∞), total clearance (CL), and volume of distribution (Vd, λz). The peak blood concentration (Cmax) and time to peak (Tmax) were read directly from the observed individual blood concentration-time data. For instillation administration, the relative bioavailability (F) was calculated using the AUC0−∞ of CA-g-CS/QR versus QR.

[4] = tested on: Escherichia coli CMCC44102; experiment: MIC and MBC, micro broth twofold dilution; type: cell-based
Experimental: (§1) We selected Escherichia coli CMCC44102 and Escherichia coli of chicken origin as experimental strains to determine their Minimum Inhibitory Concentration (MIC) and Minimum Bactericidal Concentration (MBC). The culture medium was configured and autoclaved, and the bacteria were cultured. The bacterial broth of the logarithmic growth period was diluted by micro broth twofold dilution method, 100 μL broth was added to each well of a sterile 96-well plate, and then 100 μL of prepared drug solution was added to the first well respectively, mixed well, and then diluted in multiples until the last well was mixed and 100 μL of the mixture was discarded. Each well was added with 100 μL of the prepared bacterial diluent, and a positive control (with bacteria and no drug) and a negative control (without bacteria and no drug) were set up. […] The tritriazolium chloride (TTC) method was used to determine the MIC results. 5 g/L TTC was added to each well of the 96-well plate after incubation for 1 h at 37°C, and the MIC was determined as the lowest antibacterial drug concentration in the wells with bacterial growth and the wells without bacterial growth. 100 μL of the liquid from each well clarified in the above test group was spread on solid, and the lowest drug concentration for no colony growth was its MBC. Agar plate experiments were also performed using the Oxford cup method, using CA-g-CS/QR with QR aqueous solution and maintaining the same concentration, sterile water group and CA-g-CS group were set, and three parallel experiments were performed to further confirm the antibacterial activity of the compounds.

[5] = tested on: Escherichia coli of chicken origin; experiment: MIC and MBC, micro broth twofold dilution; type: cell-based
Experimental: as §1

[6] = rats; cited from earlier work
[7] = no colony growth on solid medium

SMILES: O=c1c(O)c(-c2ccc(O)c(O)c2)oc2cc(O)cc(O)c12 [QR, Quercetin]
- particle size [1]: 1.5 ± 0.1 μm
- remaining at 24 h, 10 ng/mL ([2]; prepared plasma sample, 10 ng/mL, read-out: Remaining (%) in prepared plasma sample stored at 4°C for 24h): 92.8 ± 2.94%
- remaining at 24 h, 100 ng/mL ([2]; prepared plasma sample, 100 ng/mL, read-out: Remaining (%) in prepared plasma sample stored at 4°C for 24h): 97.2 ± 5.63%
- remaining at 24 h, 500 ng/mL ([2]; prepared plasma sample, 500 ng/mL, read-out: Remaining (%) in prepared plasma sample stored at 4°C for 24h): 99.98 ± 0.45%
- remaining at 168 h, 10 ng/mL ([2]; spiked plasma, 10 ng/mL, read-out: Remaining (%) in plasma stored at −20°C for 7 days): 96.6 ± 6.62%
- remaining at 168 h, 100 ng/mL ([2]; spiked plasma, 100 ng/mL, read-out: Remaining (%) in plasma stored at −20°C for 7 days): 103 ± 8.97%
- remaining at 168 h, 500 ng/mL ([2]; spiked plasma, 500 ng/mL, read-out: Remaining (%) in plasma stored at −20°C for 7 days): 93.5 ± 1.78%
- AUC(0-inf) ([3]; n = 6): 2840 ng·h/mL
- AUC(0-t) ([3]; n = 6): 2760 ng·h/mL
- CL/F ([3]; n = 6): 219 ± 44.1 mL/min/kg
- Cmax ([3]; n = 6): 278 ± 18.5 ng/mL
- Tmax ([3]; n = 6): 2 h
- half-life ([3]; n = 6, read-out: T1/2, λz): 6.98 ± 0.704 h
- Vd/F ([3]; n = 6, read-out: Vd, λz/F): 132 ± 25.5 L/kg
- MIC ([4]; 24 h at 37°C, TTC method): 0.013 mol/L
- MBC [4, 7]: 0.026 mol/L
- MIC ([5]; 24 h at 37°C, TTC method): 0.0585 mol/L
- MBC [5, 7]: 0.117 mol/L
- oral bioavailability [6]: < 17%
